Experiment: gradient 5% acetonitrile 3 min, to 50% in 2 min, to 85% in 15 min, held 3 min, 100 µL/min
Conditions: column: Zorbax Extend-C18 2.1 x 50 mm; eluents: water / acetonitrile, 0.1% formic acid
In short: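 Retention times of pure standards were taken from adduct peaks that were selected by computer and manually inspected. Over 3 months, mixtures of ~100 molecules were run by HPLC–quadrupole time-of-flight mass spectrometry in positive and negative ionization mode. The Zorbax Extend-C18 column (2.1 × 50 mm, 1.8 μm) ran at 100 μL/min in water and acetonitrile, each containing 0.1% formic acid, with 40 μL dead volume and 900 μL dwell volume.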

| Compound | RP-LC retention time |
| --- | --- |
| CCCn1cnc2cc(CNC(=O)c3ccc(Cl)c(Cl)c3)ccc21 | 683 s |
| O=S(=O)(c1ccc(F)cc1)N1CCN(c2cnn3cnnc3c2)CC1 | 653 s |
| CC(C)(C)C(=O)Nc1ccc(N2CCN(CCC#N)CC2)cc1C(=O)O | 611 s |
| Cn1c(=O)c2cc(C(=O)Nc3ccccc3Cl)cnc2n(-c2ccccc2)c1=O | 882 s |
| COc1cc(OC)c(-n2nnc(-c3nsc(Nc4ccc(OC)c(OC)c4)n3)c2C)cc1Cl | 928 s |
| COCCNC(=O)c1ccccc1-c1ocnc1C(=O)OC | 611 s |
| CCc1nc(OCC(=O)Nc2ccccc2F)c2ccccc2n1 | 775 s |
| Cc1ccccc1CNC(=O)C1CCCN(c2nc3ccsc3c(=O)n2Cc2ccc(F)cc2)C1 (stereo not given) | 1010 s |
| O=C(NCc1ccccc1F)c1cn(-c2ccc(-c3nc(C4CC4)no3)cn2)cn1 | 929 s |
| CC(=O)Nc1nnc(SCc2nnc(-c3ccccc3C)o2)s1 | 740 s |
| CCC1=C(c2ccc(C)cc2)S(=O)(=O)N=C1N1CCC(C(=O)NCc2ccco2)CC1 | 793 s |
| Cc1sc(NC(=O)c2ccc(Br)cc2)nc1-c1ccc2c(c1)NC(=O)CO2 | 972 s |
| COC(=O)c1c(C)[nH]c(C(=O)N2CCC(CC(=O)NCc3ccccc3Cl)CC2)c1C | 775 s |
| CC(C)C(=O)Nc1cc(-c2ccccc2)nn(C(C)C(=O)Nc2ccccc2Cl)c1=O (stereo not given) | 1170 s |
| CCn1c(C(=O)NCCCN2CCCC(C)C2)c(N2CCCC2=O)c2cc(OC)ccc21 (stereo not given) | 666 s |
| COc1ccc(C2(C(=O)Nc3cc(-c4cccnc4)no3)CC2)cc1 | 816 s |
| CCOC(=O)N1CCN(C(c2ccc(F)cc2)c2sc3ncnn3c2O)CC1 (stereo not given) | 667 s |
| CCS(=O)(=O)N1CCc2ccc(NC(=O)c3cccs3)cc2C1 | 747 s |
| Cn1c(=O)c(N2CCN(C(=O)c3cccc(F)c3)CC2)nc2ccccc21 | 864 s |

| Compound | RP-LC retention time |
| --- | --- |
| CCOc1ccccc1NC(=O)N1CCC2(CC1)NC(=O)c1ccc(Cl)cc1N2C | 858 s |
| O=c1n(Cc2ccccc2Cl)nc2ccc(S(=O)(=O)N3CCOCC3)cn12 | 824 s |
| CCn1cc(CCNC(=O)CC2CCCC2)c2cccnc21 | 701 s |
| Cc1ccc(CS(=O)(=O)N2CCC(n3c(-c4ccco4)nc4cccnc43)C2)cc1C (stereo not given) | 995 s |
| CCN1CCCn2cc(S(=O)(=O)N3CCN(c4cccc(Cl)c4)CC3)cc2C1=O | 894 s |
| Cc1cc(=O)n(CC(=O)Nc2ccccc2F)c(-c2ccccc2)n1 | 1000 s |
| CC1CC(=O)c2cnc(N3CCN(c4ccc(F)cc4)CC3)nc2C1 (stereo not given) | 1080 s |
| COc1ccc(CCN)cc1 | 574 s |
| O=C(CSc1nnc2c3cc(-c4ccc(F)cc4)nn3ccn12)Nc1ccccc1F | 881 s |
| OC[C@@H]1CN(C2CCCC2)C[C@H]1c1nc(-c2cccnc2)no1 | 553 s |
| Cc1ccccc1CN1CCCN(c2ncccc2-c2nc(C(C)C)no2)CC1 | 725 s |
| COc1ccc(OCC(=O)N(C)CCc2noc(C3CCCCC3)n2)cc1 | 912 s |
| Cn1c(=O)n(C)c2cc(S(=O)(=O)c3ccc(F)cc3)c(NC(=O)c3ccccc3)cc21 | 885 s |
| Cc1cccc(CNC(=O)c2[nH]c3cc(C)sc3c2CN2CCOCC2)c1 | 724 s |
| Cc1cc(NC(=O)c2cc(Cl)sc2Cl)n(C(C)C)n1 | 810 s |
| Cc1ccccc1NC(=O)c1cccn1Cc1noc(C2CC2)n1 | 880 s |
| CC(=O)c1cccc(NC(=O)CN2C(=O)COc3ccc(C(=O)N(C)C)cc32)c1 | 651 s |
| O=C(Nc1cc(-c2ccccc2)nn1CCO)c1ccsc1 | 726 s |

More lines, now with the values ahead:

| RP-LC retention time | Compound |
| --- | --- |
| 682 s | O=C(c1cncc(Br)c1)N1CCC(c2nnc(-c3ccco3)s2)CC1 |
| 673 s | CCCn1ccc2sc(C)c(C(=O)NCCN3CCCCC3CC)c2c1=O (stereo not given) |
| 655 s | Cc1ccc(C(CC(=O)N2CCN(c3ccccn3)CC2)N2Cc3ccccc3C2=O)cc1 (stereo not given) |
| 741 s | Cc1cccc(Nc2c(-c3ccccc3)nc3nc(C)cc(C)n23)c1 |
| 707 s | COc1ccc(C(=O)N2CCCC2c2nc(-c3ccccc3)n[nH]2)cc1 (stereo not given) |
| 662 s | O=C(CCNc1c(-c2ccccc2)nc2cnccn12)NCc1cccs1 |
| 641 s | CCCCNC(=O)CCC1CCCN(c2cc(NCC)ncn2)C1 (stereo not given) |
| 718 s | COc1cc(NC(=O)C2Nc3cc(F)ccc3S(=O)(=O)N2)cc(OC)c1OC (stereo not given) |
| 746 s | Cc1nc(NC(=O)N2CCC[C@H]2C(N)=O)sc1-c1ccnc(C(C)(C)C(F)(F)F)c1 |
| 704 s | COc1cc(-c2nc3ncccn3c2Nc2ccc(C)c(Cl)c2)ccc1O |
| 904 s | O=C(NCCc1c[nH]c2ccc(Cl)cc12)c1cc2n(n1)CCCN(Cc1ccccc1)C2=O |
| 932 s | Cn1nccc1C(=O)NCc1ccc(-c2nc(-c3ccccc3)no2)s1 |
| 817 s | Cc1nc(N2CCOCC2)c2c(C(=O)Nc3cccc(F)c3)c(C)oc2n1 |
| 900 s | O=C(NC1CCCCCC1)C1CCN(C(=O)c2ncn3c2COC(c2ccc(Cl)cc2)C3)CC1 (stereo not given) |
| 778 s | O=C(C1CCCO1)N1CCC(OCc2nc(-c3ccccc3)no2)CC1 (stereo not given) |
| 603 s | Cn1c(=O)sc2cc(S(=O)(=O)N3CCC(C(=O)NCc4cccnc4)CC3)ccc21 |
| 1010 s | O=C(Cc1csc2nc(-c3cccc(Br)c3)cn12)Nc1cccc(F)c1 |
| 619 s | CC(C)CCNC(=O)C1(C)Cn2nc(C(=O)NCc3ccc(N(C)C)cc3)cc2C(=O)N1C (stereo not given) |
| 949 s | COc1cc(NS(=O)(=O)c2cc(-c3cnn4c(C)cc(C)nc34)ccc2OC)cc(OC)c1 |
| 957 s | Cc1cc(-c2nc(-c3ccc(OC(F)(F)F)cc3)no2)nn1Cc1ccnc(N2CCN(C3CC3)CC2)c1 |
| 745 s | O=C(CSc1nnnn1-c1ccccc1)NCCc1ccc2c(c1)OCCO2 |
| 705 s | COC(=O)c1ccc(Cl)cc1NC(=O)N(C)Cc1nc2cc(C(=O)N(C)C)ccc2n1C |
| 548 s | CCOC(=O)C1CCC(CNC(=O)N2CCC(c3nc4ccncc4n3C)C2)CC1 (stereo not given) |
| 916 s | O=C(Nc1cc(-c2ccccn2)no1)c1cccc(C(F)(F)F)c1 |
| 914 s | CC(C)S(=O)(=O)N1CC(c2nc(CCOCc3ccccc3)no2)C1 |
| 593 s | O=C(NCC(=O)N1CCOCC1)c1c[nH]c2ccccc12 |
| 580 s | Cc1cc(N2CCCCC2)nc(NCCNC(=O)Cc2noc3ccccc23)n1 |

| RP-LC retention time | Compound |
| --- | --- |
| 641 s | CC(C)CCCC(C)N (stereo not given) |
| 744 s | O=C(NCCCc1ccccc1)C1CCc2nc(N3CCOCC3)ncc2C1 (stereo not given) |
| 782 s | Cc1ccc(-c2nc3nc(C)cc(C)n3c2Nc2ccccc2C)cc1 |
| 691 s | COc1ccc(C2Cn3cnc(C(=O)N4CCC(C(=O)NCCc5cccs5)CC4)c3CO2)cc1 (stereo not given) |
| 722 s | O=C(Nc1nccs1)c1ccc([N+](=O)[O-])cc1Cl |
| 1060 s | Cc1oc2ccn(Cc3cccc(F)c3)c(=O)c2c1C(=O)NCc1ccccc1F |
| 601 s | COc1ccc(OCC(=O)N2CCCCC2CCN2CCOCC2)cc1 (stereo not given) |
| 587 s | O=NN(CCCl)C(=O)NCc1ccc[n+]([O-])c1 |
| 660 s | CCOc1cc(CNC(=O)c2nc(N3CCOCC3)c3ccccc3n2)ccc1OC |
| 762 s | Cc1ccc(N2CCC(NC(=O)C(C)C)C2=O)cc1C (stereo not given) |
| 668 s | O=C(NCc1cccs1)C1CCCN(c2nnc3ccc(C(F)(F)F)cn23)C1 (stereo not given) |
| 617 s | COc1ccc(N2CCN(C(=O)COc3nccc(C)n3)CC2)cc1 |
| 547 s | Cc1ccsc1CN1CCN(c2cnn3cnnc3c2)CC1 |
| 558 s | CN1CCN(CCCNC(=O)C2CCN(c3nc4cccnc4s3)CC2)CC1 |
| 949 s | O=C(c1nnn2c1COC(c1ccc(Cl)cc1)C2)N1CCSCC1 (stereo not given) |
| 820 s | Cc1ccc(C)c(NC(=O)N2CCN(c3ccc(=O)n(-c4ccccc4)n3)CC2)c1 |
| 619 s | CN1C(=O)c2cccnc2Sc2cc(NC(=O)C3CCCO3)ccc21 (stereo not given) |
| 993 s | COc1ccc(NC(=O)N2CCN(c3nc4ccccc4nc3C(F)(F)F)CC2)cc1 |
| 610 s | COc1ccc(NC(=O)N2CCCC(Cn3cnc4cccnc43)C2)cc1 (stereo not given) |
| 649 s | CCOc1ccc(NC(=O)N2CCN(CCn3c(C(F)(F)F)nc4cccnc43)CC2)cc1 |
| 998 s | Cc1cccc(CNC(=O)CN2C(=O)CCc3cc(S(=O)(=O)N4CCCCC4C)ccc32)c1 (stereo not given) |
| 798 s | CCN1C(=O)c2c(C(=O)NCc3ccc(Cl)cc3)ncn2CC1(C)C(=O)NC1CCCC1 (stereo not given) |
| 596 s | Cc1cc(=O)n(CC(=O)NCc2ccc(F)cc2F)c(N)n1 |
| 641 s | Cc1ccc(NC(=O)NCCn2c(-c3ccncc3)nc3cccnc32)c(C)c1 |
| 1070 s | Cn1cc2c3c(cccc31)CN(C(=O)c1ccc(F)c(Cl)c1)CC2 |
| 1020 s | O=C(CCC1CCCC1)NC1(c2nc(-c3cccnc3)no2)CCCCC1 |

Reference: the METLIN SMRT retention time set (Domingo-Almenara et al. 2019)
